According to BindingDB's records for doi:10.1124/jpet.103.058636 (National Institutes of Health, 2004):

Biological target: Sodium-dependent serotonin transporter (Mus musculus, UniProt Q60857)
Sequence (Q60857 whole entry): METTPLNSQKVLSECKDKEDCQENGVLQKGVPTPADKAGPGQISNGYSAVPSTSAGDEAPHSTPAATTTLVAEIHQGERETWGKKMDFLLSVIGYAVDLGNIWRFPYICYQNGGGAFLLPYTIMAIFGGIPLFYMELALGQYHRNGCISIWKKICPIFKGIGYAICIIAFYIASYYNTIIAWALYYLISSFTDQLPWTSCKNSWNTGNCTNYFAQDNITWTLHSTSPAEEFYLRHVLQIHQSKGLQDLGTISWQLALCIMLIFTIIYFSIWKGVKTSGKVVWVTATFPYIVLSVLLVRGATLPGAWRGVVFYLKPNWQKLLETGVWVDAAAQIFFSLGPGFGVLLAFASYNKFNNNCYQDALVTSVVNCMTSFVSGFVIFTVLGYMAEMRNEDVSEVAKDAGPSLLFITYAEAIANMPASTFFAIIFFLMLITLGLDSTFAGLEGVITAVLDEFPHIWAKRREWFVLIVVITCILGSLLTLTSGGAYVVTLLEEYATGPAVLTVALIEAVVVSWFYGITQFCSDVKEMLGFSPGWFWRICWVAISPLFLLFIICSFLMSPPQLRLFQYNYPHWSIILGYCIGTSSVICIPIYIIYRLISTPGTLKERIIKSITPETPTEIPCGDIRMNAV

## CCNC(C)Cc1cccc(C(F)(F)F)c1 (stereo unspecified) [NSC_3337]
  Ki: 7.05 µM
